From US6156700A, “3-(1,2-Benzisothiazol- and isoxazol-5-yl)-2,4(1H,3H)-pyrimidinedione or thione and 3-(1,2-benzisothiazol- and isoxazol-5-yl)-4(3H)-pyrimidinone or thione herbicidal agents” (American Cyanmid Company, priority 1998, dated 2000) come the findings set out here.

What all share (set-up): scale not given here
For assay [1], the system named is ECHORC Watergrass (Calif.). Briefly: Postemergence weed control, flooded paddy (Table IV). The class given is in vivo, Echinochloa oryzoides. The source says: (§1) Plastic containers containing weeds which are 3 to 5 cm tall and rice seedlings at the 1.5 to 2.5 leaf stage are flooded with water. The water is maintained at 1.5 to 3 cm above the soil surface for the duration of the experiment. Test compounds are applied as aqueous/acetone mixtures 50/50 v/v directly into the flood water to provide the equivalent of about 0.0313 to 0.500 kg/ha of active ingredient. The treated containers are placed on greenhouse benches and cared for in accordance with conventional greenhouse procedures. Three to four weeks after treatment, the test is terminated and each container is examined and herbicidal effect rated according to the rating system provided in Example 185. The compounds evaluated are reported by compound number given in Example 185.

Assay [2] has as its system CYPIR Rice Flatsedge. Described as above. It is filed as in vivo, Cyperus iria.
Text: as §1

Assay [3] concerns CYPSE Flatsedge. The description is as above. The class given is in vivo, Cyperus serotinus.
Text: as §1

Assay [4] has as its system MOOVA Monochoria. Described as above. The class given is in vivo, Monochoria vaginalis.
Text: as §1

For assay [5], the system named is SAGPY Arrowhead (Pygmaea). The assay is described as above. The class given is in vivo, Sagittaria pygmaea.
Text: as §1

The subject of assay [6] is ORYSAT Rice, Tebonnet. Kind of assay: Rice tolerance, flooded paddy (Table IV). The class given is in vivo, Oryza sativa. Particulars: crop tolerance.
Text: as §1

SMILES strings stand for the structures.

As to `CCOC(=O)COc1ccc(C)cc1-c1nsc2ccc(-n3c(=O)cc(C(F)(F)F)n(C)c3=O)cc12` [Compound 49, Ethyl {{2-{5-[3,6-dihydro-3-methyl-2,6-dioxo-4-(trifluoromethyl)-1(2H)-pyrimidinyl]-1,2-benzisothiazol-3-yl}-p-tolyl}oxy}acetate], the herbicidal effect rating in assay [1] (0.1250 kg/ha) was 9.0; in assay [1] (0.2500 kg/ha), 9.0; in assay [2] (0.1250 kg/ha) it was 4.0; in assay [2] (0.2500 kg/ha) it was 6.0; in assay [3] (0.1250 kg/ha) it was 0.0; in assay [3] (0.2500 kg/ha), 0.0. Further, the herbicidal effect rating in assay [4] (0.1250 kg/ha) was found to be 9.0; in assay [4] (0.2500 kg/ha) it was 9.0; in assay [5] (0.1250 kg/ha), 0.0; in assay [5] (0.2500 kg/ha), 0.0; in assay [6] (0.1250 kg/ha) it was 0.0; in assay [6] (0.2500 kg/ha), 0.0.
With `COC(=O)COc1ccc(C)cc1-c1noc2ccc(-n3c(=O)cc(C(F)(F)F)n(C)c3=O)c(Cl)c12` [Compound 261, Acetic acid,{{2-{4-chloro-5-[3,6-dihydro-3-methyl-2,6-dioxo-4-(trifluoromethyl)-1(2H)-pyrimidinyl]-1,2-benzisoxazol-3-yl}-p-tolyl}oxy}-, methyl ester], the herbicidal effect rating in assay [1] (0.1250 kg/ha) was found to be 0.0; in assay [1] (0.2500 kg/ha) it was 0.0; in assay [2] (0.1250 kg/ha), 6.0; in assay [2] (0.2500 kg/ha) it was 6.0; in assay [3] (0.1250 kg/ha), 0.0; in assay [3] (0.2500 kg/ha), 0.0. For the same compound, the herbicidal effect rating in assay [4] (0.1250 kg/ha) was 9.0; in assay [4] (0.2500 kg/ha), 9.0; in assay [5] (0.1250 kg/ha), 0.0; in assay [5] (0.2500 kg/ha), 0.0; in assay [6] (0.1250 kg/ha) it was 0.0; in assay [6] (0.2500 kg/ha), 0.0.
Turning to `COc1c(-c2nsc3ccc(-n4c(=O)cc(C(F)(F)F)n(C)c4=O)cc23)ccc(C)c1C` [Compound 267, 2,4(1H,3H)-Pyrimidinedione,3-[3-(2-methoxy-3,4-xylyl)-1,2-benzisothiazol-5-yl]-1-methyl-6-(trifluoromethyl)-], the herbicidal effect rating in assay [1] (0.1250 kg/ha) stood at 9.0; in assay [1] (0.2500 kg/ha), 9.0; in assay [2] (0.1250 kg/ha) it was 9.0; in assay [2] (0.2500 kg/ha), 9.0; in assay [3] (0.1250 kg/ha) it was 0.0; in assay [3] (0.2500 kg/ha) it was 0.0. The herbicidal effect rating in assay [4] (0.1250 kg/ha) is 9.0; in assay [4] (0.2500 kg/ha), 9.0; in assay [5] (0.1250 kg/ha), 0.0; in assay [5] (0.2500 kg/ha), 0.0; in assay [6] (0.1250 kg/ha), 6.0; in assay [6] (0.2500 kg/ha), 7.0.
Turning to `CCOc1cccc(-c2nsc3ccc(-n4c(=O)cc(C(F)(F)F)n(C)c4=O)cc23)c1` [Compound 327, 2,4(1H,3H)-Pyrimidinedione, 3-[3-(m-ethoxyphenyl)-1,2-benzisothiazol-5-yl]-1-methyl-6-(trifluoromethyl)-], the herbicidal effect rating in assay [1] (0.1250 kg/ha) stood at 9.0; in assay [1] (0.2500 kg/ha) it was 9.0; in assay [2] (0.1250 kg/ha), 9.0; in assay [2] (0.2500 kg/ha), 9.0; in assay [3] (0.1250 kg/ha), 0.0; in assay [3] (0.2500 kg/ha) it was 2.0. Besides, the herbicidal effect rating in assay [4] (0.1250 kg/ha) is given as 9.0; in assay [4] (0.2500 kg/ha), 9.0; in assay [5] (0.1250 kg/ha), 4.0; in assay [5] (0.2500 kg/ha), 4.0; in assay [6] (0.1250 kg/ha), 5.0; in assay [6] (0.2500 kg/ha), 4.0.
As to `CC(C)Oc1cccc(-c2nsc3ccc(-n4c(=O)cc(C(F)(F)F)n(C)c4=O)cc23)c1` [Compound 328, 2,4(1H,3H)-Pyrimidinedione, 3-[3-(m-isopropoxyphenyl)-1,2-benzisothiazol-5-yl]-1-methyl-6-(trifluoromethyl)-], the herbicidal effect rating is reported as 9.0 in assay [1] (0.1250 kg/ha); 9.0 in assay [1] (0.2500 kg/ha); 9.0 in assay [2] (0.1250 kg/ha); 9.0 in assay [2] (0.2500 kg/ha); 6.0 in assay [3] (0.1250 kg/ha); 6.0 in assay [3] (0.2500 kg/ha). For the same compound, the herbicidal effect rating in assay [4] (0.1250 kg/ha) was 9.0; in assay [4] (0.2500 kg/ha), 9.0; in assay [5] (0.1250 kg/ha) it was 2.0; in assay [5] (0.2500 kg/ha), 6.0; in assay [6] (0.1250 kg/ha) it was 4.0; in assay [6] (0.2500 kg/ha), 4.0.
Take `COc1ccc(OC)c(-c2nsc3ccc(-n4c(=O)cc(C(F)(F)F)n(C)c4=O)cc23)c1` [Compound 333, 2,4(1H,3H)-Pyrimidinedione, 3-[3-(2,5-dimethoxyphenyl)-1,2-benzisothiazol-5-yl]-1-methyl-6-(trifluoromethyl)-]: the herbicidal effect rating in assay [1] (0.1250 kg/ha) is 9.0; in assay [1] (0.2500 kg/ha), 9.0; in assay [2] (0.1250 kg/ha), 9.0; in assay [2] (0.2500 kg/ha), 9.0; in assay [3] (0.1250 kg/ha), 4.0; in assay [3] (0.2500 kg/ha), 8.0. Moreover, the herbicidal effect rating is listed as 9.0 in assay [4] (0.1250 kg/ha); 9.0 in assay [4] (0.2500 kg/ha); 4.0 in assay [5] (0.1250 kg/ha); 4.0 in assay [5] (0.2500 kg/ha); 6.0 in assay [6] (0.1250 kg/ha); 6.0 in assay [6] (0.2500 kg/ha).
Consider `CON(C)C(=O)COc1ccccc1-c1nsc2ccc(-n3c(=O)cc(C(F)(F)F)n(C)c3=O)cc12` [Compound 354, Acetamide,2-{o-{5-[3,6-dihydro-3-methyl-2,6-dioxo-4-(trifluoromethyl)-1(2H)-pyrimidinyl]-1,2-benzisothiazol-3-yl}phenoxy}-N-methoxy-N-methyl-], for which the herbicidal effect rating in assay [1] (0.1250 kg/ha) stood at 9.0; in assay [2] (0.1250 kg/ha), 9.0; in assay [3] (0.1250 kg/ha) it was 9.0; in assay [4] (0.1250 kg/ha), 9.0; in assay [5] (0.1250 kg/ha), 9.0; in assay [6] (0.1250 kg/ha), 6.0.
Regarding `COC(=O)COc1ccc(C)cc1-c1noc2cc(F)c(-n3c(=O)cc(C(F)(F)F)n(C)c3=O)cc12` [Compound 359, Acetic acid, {{2-{5-[3,6-dihydro-3-methyl-2,6-dioxo-4-(trifluoromethyl)-1(2H)-pyrimidinyl]-6-fluoro-1,2-benzisoxazol-3-yl}-p-tolyl}oxy}-, methyl ester], the herbicidal effect rating is 6.0 in assay [1] (0.1250 kg/ha); 9.0 in assay [2] (0.1250 kg/ha); 0.0 in assay [3] (0.1250 kg/ha); 9.0 in assay [4] (0.1250 kg/ha); 0.0 in assay [5] (0.1250 kg/ha); 4.0 in assay [6] (0.1250 kg/ha).
`CC(C)S(=O)(=O)NC(=O)c1nsc2ccc(-n3c(=O)cc(C(F)(F)F)n(C)c3=O)cc12` [Compound 362, 1,2-Benzisothiazole-3-carboxamide,5-[3,6-dihydro-3-methyl-2,6-dioxo-4-(trifluoromethyl)-1(2H)-pyrimidinyl]-N-(isopropylsulfonyl)-]: the herbicidal effect rating amounted to 7.0 in assay [1] (0.1250 kg/ha); 9.0 in assay [1] (0.2500 kg/ha); 8.0 in assay [2] (0.1250 kg/ha); 4.0 in assay [2] (0.2500 kg/ha); 9.0 in assay [3] (0.1250 kg/ha); 9.0 in assay [3] (0.2500 kg/ha). The herbicidal effect rating in assay [4] (0.1250 kg/ha) is 9.0; in assay [4] (0.2500 kg/ha), 9.0; in assay [5] (0.1250 kg/ha), 4.0; in assay [5] (0.2500 kg/ha), 8.0; in assay [6] (0.1250 kg/ha), 3.0; in assay [6] (0.2500 kg/ha) it was 6.0.
For the compound `Cc1ccc(OCC(=O)OCC2(c3ccccc3)CC2)c(-c2nsc3ccc(-n4c(=O)cc(C(F)(F)F)n(C)c4=O)cc23)c1` [Compound 517, Acetic acid, {{2-{5-[3,6-dihydro-3-methyl-2,6-dioxo-4-(trifluoromethyl)-1(2H)-pyrimidinyl]-1,2-benzisothiazol-3-yl}-p-tolyl}oxy}-, (1-phenylcyclopropyl)methyl ester], the herbicidal effect rating in assay [1] (0.1250 kg/ha) was 0.0; in assay [1] (0.2500 kg/ha), 0.0; in assay [2] (0.1250 kg/ha) it was 9.0; in assay [2] (0.2500 kg/ha), 9.0; in assay [3] (0.1250 kg/ha), 0.0; in assay [6] (0.1250 kg/ha), 0.0. For the same compound, in assay [6] (0.2500 kg/ha), the herbicidal effect rating is listed as 0.0.
Take `C#CCOC(=O)C(C)(C)Oc1ccc(C)cc1-c1nsc2ccc(-n3c(=O)cc(C(F)(F)F)n(C)c3=O)cc12` [Compound 528, Propionic acid, 2-{{2-{5-[3,6-dihydro-3-methyl-2,6-dioxo-4-(trifluoromethyl)-i(2H)-pyrimidinyl]-1,2-benzisothiazol-3-yl}-p-tolyl}oxy}-2-methyl-, 2-propynyl ester]: the herbicidal effect rating in assay [2] (0.1250 kg/ha) is on record as 6.0; in assay [2] (0.2500 kg/ha), 6.0; in assay [3] (0.2500 kg/ha) it was 9.0; in assay [5] (0.1250 kg/ha) it was 0.0; in assay [6] (0.1250 kg/ha), 2.0; in assay [6] (0.2500 kg/ha), 3.0.
